Laboratory results as given in ChEMBL document CHEMBL5352385, “Marine natural products and their synthetic analogs as promising antibiofilm agents for antibiotics discovery and development” (Eur J Med Chem, 2022).
pIC50: −log10 of the molar value. Each block holds one molecule with its values, some of them ahead of it. *1 amine or outer side, *2 acyl side, *3 side chain or, on linkers, in order; H or OH if unused. Where a SMILES comes first, the peptide text is derived from it. [ ]: non-standard residue; d: D form. X1 = CCCCCCCCCCCCCC(N[*:1])C(=O)[*:2]

Assays:
Candida albicans [1] = assay: Antibiofilm activity against Candida albicans assessed as reduction in biofilm formation at 50 ug/ml measured after 48 hrs by crystal violet staining based analysis relative to control; format: functional; parameters: scale not given: the % may be the effect or the level left; conditions: dose 50 µg/ml
Staphylococcus aureus [2] = assay: Antibiofilm activity against Staphylococcus aureus ATCC 6538 at 6.25 ug/ml relative to control; format: functional; conditions: dose 6.25 µg/ml
Staphylococcus aureus [3] = assay: Antibiofilm activity against methicillin-resistant Staphylococcus aureus CH 10850 at 100 ug/ml relative to control; format: functional; conditions: dose 100 µg/ml
Streptococcus mutans [4] = assay: Antibiofilm activity against clinical isolate Streptococcus mutans 2.M7/4 assessed as inhibition of biofilm formation at 31.0 ug/ml relative to control; format: functional; parameters: scale not given: the % may be the effect or the level left; conditions: dose 31 µg/ml
Streptococcus mutans [5] = assay: Antibiofilm activity against Streptococcus mutans UA159 assessed as inhibition of biofilm formation at 31.0 ug/ml relative to control; format: functional; parameters: scale not given: the % may be the effect or the level left; conditions: dose 31 µg/ml
Pseudomonas aeruginosa [6] = assay: Antibiofilm activity against Pseudomonas aeruginosa PA01 assessed as inhibition of biofilm formation at 800 ug/ml relative to control; format: functional; parameters: scale not given: the % may be the effect or the level left; conditions: dose 800 µg/ml
[7] = test system: Staphylococcus epidermidis; assay: Antibiofilm activity against Staphylococcus epidermidis RP62A; format: functional
[8] = Inhibition of quorum sensing system in Pseudomonas aeruginosa PA01 transfected with lasB-gfp
[9] = Inhibition of quorum sensing system in Pseudomonas aeruginosa PA01 transfected with […]
Escherichia coli = assay: Antibiofilm activity against Escherichia coli at 50.9 ug/ml relative to control; format: functional; conditions: dose 50.9 µg/ml
Pseudomonas aeruginosa [10] = assay: Antibiofilm activity against Pseudomonas aeruginosa assessed as inhibition of biofilm formation at 100 ug/ml incubated for 24 hrs by crystal violet staining based analysis relative to control; format: functional; parameters: scale not given: the % may be the effect or the level left; conditions: dose 100 µg/ml
Staphylococcus aureus [11] = assay: Antibiofilm activity against Staphylococcus aureus ATCC 6538 at 12.5 ug/ml relative to control; format: functional; conditions: dose 12.5 µg/ml
Vibrio anguillarum = assay: Antibiofilm activity against Vibrio anguillarum at 300 ug/ml relative to control; format: functional; conditions: dose 300 µg/ml
Pseudomonas aeruginosa [12] = assay: Antibiofilm activity against Pseudomonas aeruginosa at 300 ug/ml relative to control; format: functional; conditions: dose 300 µg/ml
Bacillus subtilis [13] = assay: Antibiofilm activity against Bacillus subtilis at 300 ug/ml relative to control; format: functional; conditions: dose 300 µg/ml
Bacillus sp. = assay: Antibiofilm activity against Bacillus sp. 176 at 300 ug/ml relative to control; format: functional; conditions: dose 300 µg/ml
Staphylococcus aureus [14] = assay: Antibiofilm activity against Staphylococcus aureus ATCC 25923 at 8 to 16 ug/ml incubated for 24 hrs by crystal violet staining based analysis relative to control; format: functional; conditions: dose 8-16 µg/ml, at 8 to 16 µg/mL
Bacillus subtilis [15] = assay: Antibiofilm activity against Bacillus subtilis ATCC 6633 at 8 to 16 ug/ml incubated for 24 hrs by crystal violet staining based analysis relative to control; format: functional; conditions: dose 8-16 µg/ml, at 8 to 16 µg/mL
Staphylococcus aureus [16] = assay: Antibiofilm activity against Staphylococcus aureus B1 at 8 to 16 ug/ml incubated for 24 hrs by crystal violet staining based analysis relative to control; format: functional; conditions: dose 8-16 µg/ml, at 8 to 16 µg/mL
Enterococcus faecalis = assay: Antibiofilm activity against Enterococcus faecalis W1 at 8 to 16 ug/ml incubated for 24 hrs by crystal violet staining based analysis relative to control; format: functional; conditions: dose 8-16 µg/ml, at 8 to 16 µg/mL
Staphylococcus aureus [17] = assay: Antibiofilm activity against methicillin-resistant Staphylococcus aureus ATCC 6538 at 100 ug/ml incubated for 24 hrs by crystal violet staining based microplate reader method relative to control; format: functional; conditions: dose 100 µg/ml
Candida albicans [18] = assay: Antibiofilm activity against Candida albicans assessed as reduction in biofilm formation at 100 ug/ml measured after 48 hrs by crystal violet staining based analysis relative to control; format: functional; parameters: scale not given: the % may be the effect or the level left; conditions: dose 100 µg/ml
Candida albicans [19] = assay: Antibiofilm activity against Candida albicans assessed as inhibition of biofilm formation at 400 ug/ml by microbroth dilution assay relative to control; format: functional; parameters: scale not given: the % may be the effect or the level left; conditions: dose 400 µg/ml
Listeria monocytogenes = assay: Antibiofilm activity against Listeria monocytogenes ATCC 19111 at 256 ug/ml relative to control; format: functional; conditions: dose 256 µg/ml
[20] = test system: Staphylococcus epidermidis; assay: Antibiofilm activity against Staphylococcus epidermidis RP62A at 256 ug/ml relative to control; format: functional; conditions: dose 256 µg/ml
Serratia marcescens = assay: Antibiofilm activity against Serratia marcescens at 30 ug/ml relative to control; format: functional; conditions: dose 30 µg/ml
[21] = test system: Staphylococcus epidermidis; assay: Antibiofilm activity against Staphylococcus epidermidis; format: functional
Pseudomonas aeruginosa [22] = assay: Antibiofilm activity against Pseudomonas aeruginosa PA01 at 128 ug/ml relative to control; format: functional; conditions: dose 128 µg/ml
Staphylococcus aureus [23] = assay: Antibiofilm activity against Staphylococcus aureus by crystal violet staining based analysis; format: functional
Staphylococcus aureus [24] = assay: Antibiofilm activity against Staphylococcus aureus incubated for 3 hrs by XTT method; format: functional

SMILES: CCCCCCC(C)/C(O)=C1\C(=O)[C@@H](C(C)O)N(C)C1=O (stereo partly specified)
Activity (Candida albicans [1]): 80%

SMILES: COC(=O)[C@@]12Oc3ccc(-c4ccc5c(c4O)C(=O)C4=C(O)C[C@H](C)[C@H](O)[C@]4(C(=O)OC)O5)c(O)c3C(=O)C1=C(O)C[C@H](C)[C@@H]2O [SECALONIC ACID B]
Activity (Staphylococcus aureus [2]): >90%

SMILES: CCC1=C(C=O)[C@H](C(=O)OC)CC[C@@H]1[C@@]1(C)CCCC(C)(C)C1
Activity (Staphylococcus aureus [3]): 90.7%

SMILES: CCCCCCCCC[C@H](CC(=O)NCCCN)N1CC(=O)N[C@@H](Cc2ccccc2)C1=O
Activity (Streptococcus mutans [4]): 34.8%
Activity (Streptococcus mutans [5]): 90%

SMILES: NCCc1ccc(O)cc1 [TYRAMINE]
Activity (Pseudomonas aeruginosa [6]): 28%

SMILES: CC(=O)OC1OC2OC(=O)[C@H](C)C34OOC([C@@]5(C)CCCC(C)(C)C5)(CC[C@@H]1C23)O4 (stereo partly specified)
Activity (Staphylococcus aureus [3]): 99%

SMILES: CCCCC/C=C/C(=O)CCCCCCCCCC(=O)O
MBIC [7]: 16 µg/mL

pIC50 [8]: 5.07
pIC50 [9]: 5.06
SMILES: O=C(NCCSSCCNC(=O)/C(Cc1cc(Br)c(O)c(-c2cc(C/C(=N\O)C(=O)NCCSSCCNC(=O)/C(Cc3ccc(O)c(Br)c3)=N/O)cc(Br)c2O)c1)=N\O)/C(Cc1ccc(O)c(Br)c1)=N\O

SMILES: COC(=O)[C@@]12Oc3ccc(-c4ccc5c(c4O)C(=O)C4=C(O)C[C@H](C)[C@@H](O)[C@]4(C(=O)OC)O5)c(O)c3C(=O)C1=C(O)C[C@H](C)[C@H]2O
Activity (Staphylococcus aureus [2]): 97%

SMILES: NC1=N[C@]23CCCN2C(=O)c2[nH]c(Br)c(Br)c2[C@@H]3N1
Activity (Escherichia coli): 50%

SMILES: CCC(C)C(=O)NCCc1ccccc1 (stereo unspecified)
Activity (Pseudomonas aeruginosa [10]): 50.6%

SMILES: CC1=C2C(=CO[C@H](C)[C@H]2C)C(O)=C(C(=O)O)C1=O [CITRININ]
Activity (Staphylococcus aureus [11]): >50%

SMILES: CCCCCCCCCCCCCC1NC(=O)C(C(C)CC)NC(=O)C(CC(C)C)NC(=O)C(CC(=O)OC)NC(=O)C(CC(C)C)NC(=O)C(CC(C)C)NC(=O)C(CC(C)C)NC(=O)C(CCC(=O)OC)NC1=O (stereo unspecified) (cyclo([X1]E(OMe)LLLD(OMe)LI); configuration not given here)
Activity (Vibrio anguillarum): >50%
Activity (Pseudomonas aeruginosa [12]): >50%
Activity (Bacillus subtilis [13]): >50%
Activity (Bacillus sp.): >50%

SMILES: C=C1CC[C@H]2[C@@](C)(CC[C@H]3C(C)(C)[C@@H](OC(C)=O)CC[C@]23C)[C@@H]1Cc1c(O)cc(C)oc1=O
Activity (Staphylococcus aureus [14]): 100%
Activity (Bacillus subtilis [15]): 100%
Activity (Staphylococcus aureus [16]): 100%
Activity (Enterococcus faecalis): 100%

SMILES: C[C@H]1C(=O)O[C@@H]2OC[C@@H]3CCC([C@@]4(C)CCCC(C)(C)C4)=C1[C@@H]32
Activity (Staphylococcus aureus [3]): 85.4%

SMILES: CC(=O)O[C@H]1C[C@@H]2C(CO)=C[C@]3(C=C(C)C[C@@H](/C=C(\C)CCC=C(C)C)O3)O[C@@H]2C=C1C
Activity (Staphylococcus aureus [17]): 50%

SMILES: C/C=C1\C(=O)/C(=C(/O)C(C)CCCCCC)C(=O)N1C (stereo unspecified) [PENICILLENOL B2]
Activity (Candida albicans [18]): 80%

SMILES: O=Cc1ccc(CO)o1 [AES-103]
Activity (Candida albicans [19]): 86%

SMILES: CC(C)C[C@@H]1NC(=O)[C@@H]2CCCN2C1=O
Activity (Listeria monocytogenes): 86.9%
Activity [20]: 82%
Activity (Serratia marcescens): 53.5%

SMILES: CC(=O)O[C@@H]1C[C@@H]2C(CO)=C[C@]3(C=C(C)C[C@@H](/C=C(\C)CCC=C(C)C)O3)O[C@@H]2C=C1C
Activity (Staphylococcus aureus [17]): 50%

SMILES: O=C1Nc2ccc(Br)cc2C1(c1c[nH]c2ccccc12)c1c[nH]c2ccccc12
MBIC [21]: 5 µM
Activity (Pseudomonas aeruginosa [22]): 49.32%

pIC50 [8]: 4.51
pIC50 [9]: 5.58
SMILES: O=C(NCCSSCCNC(=O)/C(Cc1ccc(O)c(Br)c1)=N/O)/C(Cc1ccc(O)c(Br)c1)=N/O [PSAMMAPLIN A]

SMILES: CCCCOC(=O)[C@]1(Cc2ccccc2)OC(=O)C(O)=C1c1ccccc1
MBIC (Staphylococcus aureus [23]): 6.1 µg/mL
MBIC (Staphylococcus aureus [24]): 97.7 µg/mL
